In assay [1] the test system is MyD88/NF-κB and ERK signaling pathway. Kind of assay: Simple Western / RT-qPCR of MyD88/NF-κB and ERK pathway in the brain of CIRI mice. Type of assay: in vivo, C57BL/6 mice. The conditions noted are these: TJ-5 15 mg/kg. Here is the method: Total mRNA was extracted from the brain cortex using TRIzol reagent and reverse-transcribed into cDNA using the PrimeScript™ RT reagent kit (Takara, Japan), following the manufacturer’s instructions. RT-qPCR was performed using SYBR Green Real-time PCR Master Mix (Takara, Japan) with the Step One System (Life Technologies). The results were expressed as fold change from the untreated control and analyzed using the 2^−ΔΔCt method. The primers were as follows (5′–3′): MyD88 forward: TTTATCTGCTACTGCCCCAACG, reverse: GCGGCGACACCTTTTCTCA; TLR4 forward: ATGCTGCAACTGATGTTCCTTC, reverse: GATGTTAGACCTTTCTTCCTCCC; GAPDH forward: TGTTCCTACCCCCAATGTGTCC, reverse: GGAGTTGCTGTTGAAGTCGCAG; TNF-α forward: ATGGCCTCCCTCTCATCAGT, reverse: TGGTTTGCTACGACGTGGG; IL-6 forward: AGTGGCTAAGGACCAAGAC, reverse: ATAACGCACTAGGTTTGCCGA; iNOS forward: ATTCACAGCTCATCCGGTACG, reverse: GGATCTTGACCATCAGCTTGC; IL-1β forward: GCACTACAGGCTCCGAGATGAA, reverse: GTCGTTGCTTGGTTCTCCTTGT.
Here, Simple Western, a novel immunoassay to detect proteins in the brain, was used, as previously described ([Kannan et al., 2018]; [Nanki et al., 2018]). Briefly, the prepared proteins were diluted to a concentration of 0.5 mg/ml using a sample preparation kit (Protein Simple, United States). Then, according to the manufacturer’s instructions, the prepared reagents were added to the detection plate sequentially for processing in an automated capillary electrophoresis system (Simple Western system). The primary antibodies recognized HMGB1, TLR4, MyD88, NeuN, P-ERK, P-IκBα, IκBα, NF-κB p65 (CST, 1:50), Histone H3 (ABclonal, 1:50), and GAPDH (ABclonal, 1:1000). Compass for SW software v4.0.0 (Protein Simple, United States) was used to quantitatively analyze the signal intensity (area) of the protein.

The test system of another assay is CIRI mice. The assay can be described thus: Immunofluorescence staining (NeuN, TUNEL, Iba-1) of brain slices of CIRI mice. Type of assay: in vivo, C57BL/6 mice. The procedure: As mentioned previously, immunofluorescence staining was performed on paraffin-embedded brain slices ([Ye et al., 2020]). After standard histological procedures, the slices were treated with the TUNEL (terminal deoxynucleotidyl transferase dUTP nick end labeling) reaction mixture to detect apoptosis according to the manufacturer’s protocol (Roche, Germany). Furthermore, the slices were used for immunofluorescence with rabbit anti-NeuN antibody (1:300, CST) and rabbit anti-Iba-1 antibody (1:500, CST). After incubating overnight at 4°C, goat anti-rabbit IgG (1:1000) secondary antibodies were applied, and the brain slices were incubated for 2 h at room temperature. Finally, the slices were washed and labeled with 4′,6-diamidino-2-phenylindole for 10 min at room temperature. Images were captured using a fluorescence microscope.

A further assay relates to NF-κB p65. The assay can be described thus: NF-κB p65 nuclear translocation in LPS-stimulated BV-2 cells, immunofluorescence. Type of assay: cell-based. The conditions noted are these: 12 h after LPS stimulation. Here is the method: BV-2 microglial and SH-SY5Y cells were cultured as previously described ([Zhao et al., 2020]). A lipopolysaccharide (LPS)-stimulated BV-2 cell model was established to mimic severe neuroinflammation induced by multiple inflammatory mediators after reperfusion ([Li et al., 2021]). BV-2 cells were pretreated with different concentrations of TJ-5 for 2 h before LPS (1 μg/ml) stimulation (#L2880, Sigma, United States). […] In addition, ST2825, a recognized MyD88 inhibitor, was used as positive control group.
For BV-2 cells immunofluorescence staining, the cells were fixed with 4% paraformaldehyde for 10 min and permeabilized with 0.5% Triton X-100 for 10 min. After blocking with goat serum, the cells were sequentially incubated with the primary antibody, secondary antibody, and Hoechst in sequence. Images were captured using a confocal microscope. The fluorescence intensity was analyzed using ImageJ software.

Consider `O=C(CCN1CCN(Cc2ccccc2)CC1)Nc1nc(-c2ccccc2)cs1` [TJ-5], for which, in assay [1], the “expression of HMGB1, TLR4, and MyD88 in the ischemic hemisphere” value is given as “downregulated”; the “phosphorylation of ERK in the ischemic hemisphere” value is on record as “inhibited”; the “phosphorylation of IκBα and nuclear translocation of NF-κB p65 in the ischemic hemisphere” value was “reduced”. Further, the “NeuN protein levels in the brain” value in assay [1] (I/R-induced decrease) was “attenuated this decrease”. Also, the “apoptosis (TUNEL) in whole brain and ischemic penumbra of the cortex” value in the assay with CIRI mice (TJ-5 15 mg/kg i.v. after 1 h ischemia) was “significantly reduced”. In addition, the “number of neurons (NeuN) in the injured hemisphere” value in the assay with CIRI mice (TJ-5 15 mg/kg vs vehicle group) was “significantly increased”. Further, in the assay on CIRI mice (TJ-5 15 mg/kg, vs I/R group), the “number of Iba-1 positive cells in cortex” value is recorded as “significantly decreased”. Further, in the assay on NF-κB p65, the “LPS-induced NF-κB p65 nuclear translocation” value is “significantly prevented”.
